Data as given in patent US4234736A, “Antiandrogenic and schistosomicidal imidazolidine derivatives” (Hoffmann-La Roche Inc., priority 1977, dated 1980).
Values joined by “and” are separate entries in the source; they are usually repeats but may differ in a detail not shown here. Equal values may be shown once.

Key:
[1] = LD50 (acute toxicity), p.o.; settings: in vivo, po, species not given
Schistosoma mansoni = test: Schistosomicidal activity in infected mice (VD50); format: in vivo; settings: po, 1008 h, p.o., administered 5 times (5 successive days), from 42 days after infection, Probit method, read-out: VD50 (vermicidal dose 50%: the dose which kills 50% of the worm pairs)
Experimental: Mice were infected subcutaneously with 60 cercariae of Schistosoma mansoni. 42 days after the infection, the animals were treated perorally on 5 successive days with the compositions to be tested 5-10 mice were used for each composition and dosage rate (mg/kg). 10 untreated mice serve as the control. The mice were autopsied either 6 days or 2-3 weeks after conclusion of the treatment. Worm pairs in mesenteric veins, the portal vein and the liver were removed and counted. The percent distribution of the worm pairs in mesenteric veins, the portal vein and the liver was calculated and the condition of the worms (living and dead) recorded. The schistosomicidal activity of the compositions containing a compound of formula I is shown both by an increased proportion of worms in the vessels of the liver and in the appearance of dead worms.
For the evaluation, the percentage proportions of living and dead worm pairs in the vessels of the liver both in infected, treated animals and in infected but untreated control animals were compared. The determination of the VD50 (vermicidal dose 50%: the dose which kills 50% of the worm pairs) is carried out by the Probit method.

ventral prostate = test: Antiandrogenic test: ventral prostate weight in testosterone propionate-treated rats; format: in vivo, rat; settings: sterilized male rats, 5 per group; s.c. daily for 7 days; compound 10 mg/kg + testosterone propionate 0.5 mg/kg, or testosterone propionate 0.5 mg/kg alone
Experimental: (§1) The antiandrogenic activity of the compositions of this invention can be determined in the following test:
(§2) 10 mg. per kg of the composition together with 0.5 mg. per kg. of testosterone propionate are administered s.c. daily for 7 days to each of 5 male, sterilized rats. Two control groups of 5 rats each were also used. One control group received no treatment. The second control group received only 0.5 mg. per kg. of testosterone propionate.
(§3) Testosterone propionate causes an increase in weight in the ventral prostrate and the seminal vesicle. Thus, a decrease in weight in the ventral prostrate and the seminal vesicle when a composition containing a compound of formula I is given to the rats in combination with testosterone propionate is a measure of the antiandrogenic activity of that compound.

seminal vesicle = test: Antiandrogenic test: seminal vesicle weight in testosterone propionate-treated rats; format: in vivo, rat; settings: sterilized male rats, 5 per group; s.c. daily for 7 days; compound 10 mg/kg + testosterone propionate 0.5 mg/kg, or testosterone propionate 0.5 mg/kg alone
Experimental: as §1, §2, §3

| SMILES | LD50 [1] [mg/kg] | ED50 (Schistosoma mansoni) [mg/kg] | Ventral prostate weight (ventral prostate) | Seminal vesicle weight (seminal vesicle) |
| --- | --- | --- | --- | --- |
| CC1(C)NC(=O)N(c2ccc(Cl)c(Cl)c2)C1=O [3-(3,4-Dichloro-phenyl)-5,5-dimethyl-hydantoin] | 2500 to 5000 | 58 | 36 ± 4 mg | 29 ± 2 mg |
| CC1(C)NC(=O)N(c2cccc(C(F)(F)F)c2)C1=O [3-(3-Trifluoromethyl-phenyl)-5,5-dimethyl-hydantoin] | 625 to 1250 |  |  |  |
| CC1(C)NC(=O)N(c2ccc(Cl)cc2)C1=O [3-(4-Chloro-phenyl)-5,5-dimethyl-hydantoin] | 1250 to 2500 | 77 |  |  |
| CC1(C)NC(=O)N(c2ccc(F)cc2)C1=O [3-(4-Fluoro-phenyl)-5,5-dimethyl-hydantoin] | 600 to 1200 | 69 |  |  |
| COC(=O)C(C)(C)NC(=O)Nc1ccc(Cl)c(C(F)(F)F)c1 [N-[(3-Trifluoromethyl-4-chloro-phenyl)-carbamoyl]-2-methylalanine methyl ester] | > 5000 | 74 | 61 ± 6 mg | 47 ± 11 mg |
| CCC(=O)O[C@H]1CC[C@H]2[C@@H]3CCC4=CC(=O)CC[C@]4(C)[C@H]3CC[C@]12C [Testosterone propionate, reference compound] |  |  | 140 ± 11 mg and 121 ± 13 mg | 88 ± 5 mg and 100 ± 9 mg |
